Experimental data from PubChem BioAssay AID2060505 (Molecular Pharmacology Branch, DTP, NCI, 2025).

Tested on: 633275-114-R-J1-PDC complex spheroids, viability
Experiment: Anticancer human tumor 633275-114-R-J1-PDC patient-derived endometrial adenocarcinoma cell line growth inhibition [GQUAD]
Conditions: for IC50: curve of first compound; for viability, T/C: stronger effect = lower value
How it was run: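 Tumor cells were grown as complex spheroids with HUVEC endothelial cells and mesenchymal stem cells as stroma. G-quadruplex stabilizers were combined with targeted agents over half-log dilutions from near the clinical Cmax, or from 10 microM.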

[1] = second compound 0.0316 µM, first compound 0.0316 µM
[2] = second compound 0.0316 µM, first compound 0.1 µM
[3] = second compound 0.0316 µM, first compound 0.316 µM
[4] = second compound 0.0316 µM, first compound 1 µM
[5] = second compound 0.0316 µM, first compound 3.16 µM
[6] = second compound 0.0316 µM, first compound 10 µM
[7] = second compound 0.1 µM, first compound 0.0316 µM
[8] = second compound 0.1 µM, first compound 0.1 µM
[9] = second compound 0.1 µM, first compound 0.316 µM
[10] = second compound 0.1 µM, first compound 1 µM
[11] = second compound 0.1 µM, first compound 3.16 µM
[12] = second compound 0.1 µM, first compound 10 µM
[13] = second compound 0.316 µM, first compound 0.0316 µM
[14] = second compound 0.316 µM, first compound 0.1 µM
[15] = second compound 0.316 µM, first compound 0.316 µM
[16] = second compound 0.316 µM, first compound 1 µM
[17] = second compound 0.316 µM, first compound 3.16 µM
[18] = second compound 0.316 µM, first compound 10 µM
[19] = second compound 1 µM, first compound 0.0316 µM
[20] = second compound 1 µM, first compound 0.1 µM
[21] = second compound 1 µM, first compound 0.316 µM
[22] = second compound 1 µM, first compound 1 µM
[23] = second compound 1 µM, first compound 3.16 µM
[24] = second compound 1 µM, first compound 10 µM
[25] = second compound 3.16 µM, first compound 0.0316 µM
[26] = second compound 3.16 µM, first compound 0.1 µM
[27] = second compound 3.16 µM, first compound 0.316 µM
[28] = second compound 3.16 µM, first compound 1 µM
[29] = second compound 3.16 µM, first compound 3.16 µM
[30] = second compound 3.16 µM, first compound 10 µM
[31] = second compound 10 µM, first compound 0.0316 µM
[32] = second compound 10 µM, first compound 0.1 µM
[33] = second compound 10 µM, first compound 0.316 µM
[34] = second compound 10 µM, first compound 1 µM
[35] = second compound 10 µM, first compound 3.16 µM
[36] = second compound 10 µM, first compound 10 µM
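Further: spheroids exposed to the agents for seven days.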
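Wherever viability, T/C is given: percent of DMSO vehicle control viability which is 100%.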

O=C(NO)c1cnc(N2CCN(S(=O)(=O)c3ccc4ccccc4c3)CC2)nc1 + CN(C)c1ccc(Nc2c3ccc(NC(=O)CCN4CCCC4)cc3nc3cc(NC(=O)CCN4CCCC4)ccc23)cc1
IC50 (second compound 0.0316 µM): 206 nM
IC50 (second compound 0.1 µM): 150 nM
IC50 (second compound 0.316 µM): 170 nM
IC50 (second compound 1 µM): 158 nM
IC50 (second compound 3.16 µM): 138 nM
IC50 (second compound 10 µM): < 31.6 nM
viability, T/C [1]: 75.1%
viability, T/C [2]: 64.9%
viability, T/C [3]: 40.4%
viability, T/C [4]: 22.8%
viability, T/C [5]: 11.5%
viability, T/C [6]: 4.89%
viability, T/C [7]: 68.3%
viability, T/C [8]: 58.4%
viability, T/C [9]: 35.5%
viability, T/C [10]: 19.6%
viability, T/C [11]: 10.5%
viability, T/C [12]: 5.36%
viability, T/C [13]: 80.9%
viability, T/C [14]: 62%
viability, T/C [15]: 35.7%
viability, T/C [16]: 20.1%
viability, T/C [17]: 12.1%
viability, T/C [18]: 4.98%
viability, T/C [19]: 70.1%
viability, T/C [20]: 58.3%
viability, T/C [21]: 37.9%
viability, T/C [22]: 18.3%
viability, T/C [23]: 12.2%
viability, T/C [24]: 5.49%
viability, T/C [25]: 62.6%
viability, T/C [26]: 55%
viability, T/C [27]: 37.5%
viability, T/C [28]: 15.6%
viability, T/C [29]: 9.85%
viability, T/C [30]: 2.65%
viability, T/C [31]: 30.4%
viability, T/C [32]: 26.4%
viability, T/C [33]: 16.3%
viability, T/C [34]: 6.49%
viability, T/C [35]: 1.21%
viability, T/C [36]: 0.19%

CC1COCCN1c1cc(-c2ccnn2C)c2ccnc(-c3ccn[nH]3)c2n1 (stereo not drawn) + Cc1[nH]c2ccc(F)cc2c1-c1nc2c3cccnc3c3ncccc3c2[nH]1
IC50 (second compound 0.0316 µM): 146 nM
IC50 (second compound 0.1 µM): 156 nM
IC50 (second compound 0.316 µM): 191 nM
IC50 (second compound 1 µM): 116 nM
IC50 (second compound 3.16 µM): 70.4 nM
IC50 (second compound 10 µM): 74.8 nM
viability, T/C [1]: 77.3%
viability, T/C [2]: 56.4%
viability, T/C [3]: 37.1%
viability, T/C [4]: 27.7%
viability, T/C [5]: 21.9%
viability, T/C [6]: 16.8%
viability, T/C [7]: 80.5%
viability, T/C [8]: 57.5%
viability, T/C [9]: 38.3%
viability, T/C [10]: 26.3%
viability, T/C [11]: 21.4%
viability, T/C [12]: 17%
viability, T/C [13]: 77.6%
viability, T/C [14]: 62.9%
viability, T/C [15]: 39%
viability, T/C [16]: 28.1%
viability, T/C [17]: 21.2%
viability, T/C [18]: 18.4%
viability, T/C [19]: 77.9%
viability, T/C [20]: 52.5%
viability, T/C [21]: 34.6%
viability, T/C [22]: 26.6%
viability, T/C [23]: 23%
viability, T/C [24]: 17.7%
viability, T/C [25]: 60.9%
viability, T/C [26]: 46.1%
viability, T/C [27]: 31.1%
viability, T/C [28]: 26.8%
viability, T/C [29]: 21.7%
viability, T/C [30]: 17.5%
viability, T/C [31]: 61%
viability, T/C [32]: 46.9%
viability, T/C [33]: 30.8%
viability, T/C [34]: 25.1%
viability, T/C [35]: 21.1%
viability, T/C [36]: 18.6%

CC1COCCN1c1cc(C2(S(C)(=N)=O)CC2)nc(-c2ccnc3[nH]ccc23)n1 (stereo not drawn) + Cc1[nH]c2ccc(F)cc2c1-c1nc2c3cccnc3c3ncccc3c2[nH]1
IC50 (second compound 0.0316 µM): 3460 nM
IC50 (second compound 0.1 µM): 3070 nM
IC50 (second compound 0.316 µM): 3550 nM
IC50 (second compound 1 µM): 3240 nM
IC50 (second compound 3.16 µM): 1290 nM
IC50 (second compound 10 µM): 1380 nM
viability, T/C [1]: 105%
viability, T/C [2]: 96.1%
viability, T/C [3]: 98.3%
viability, T/C [4]: 73.9%
viability, T/C [5]: 52.6%
viability, T/C [6]: 33.8%
viability, T/C [7]: 97.3%
viability, T/C [8]: 99.9%
viability, T/C [9]: 96.4%
viability, T/C [10]: 78.5%
viability, T/C [11]: 49.8%
viability, T/C [12]: 33.2%
viability, T/C [13]: 102%
viability, T/C [14]: 97.5%
viability, T/C [15]: 90.5%
viability, T/C [16]: 81.6%
viability, T/C [17]: 50.4%
viability, T/C [18]: 33.5%
viability, T/C [19]: 90.9%
viability, T/C [20]: 92.8%
viability, T/C [21]: 87.6%
viability, T/C [22]: 73%
viability, T/C [23]: 50.7%
viability, T/C [24]: 34.3%
viability, T/C [25]: 73.7%
viability, T/C [26]: 76.4%
viability, T/C [27]: 69.9%
viability, T/C [28]: 52.6%
viability, T/C [29]: 38.4%
viability, T/C [30]: 30.3%
viability, T/C [31]: 71.7%
viability, T/C [32]: 71.5%
viability, T/C [33]: 67%
viability, T/C [34]: 54.7%
viability, T/C [35]: 37.6%
viability, T/C [36]: 27.2%

COc1ccc([C@@H](O)c2cc(-c3ncnc4cc(N5CCOCC5)ccc34)c(F)cc2Cl)nn1 + Cc1[nH]c2ccc(F)cc2c1-c1nc2c3cccnc3c3ncccc3c2[nH]1
IC50 (second compound 0.0316 µM): 4910 nM
IC50 (second compound 0.1 µM): 3710 nM
IC50 (second compound 0.316 µM): 2910 nM
IC50 (second compound 1 µM): 3150 nM
IC50 (second compound 3.16 µM): 1880 nM
IC50 (second compound 10 µM): 1410 nM
viability, T/C [1]: 107%
viability, T/C [2]: 91%
viability, T/C [3]: 82.9%
viability, T/C [4]: 72.5%
viability, T/C [5]: 58%
viability, T/C [6]: 38.5%
viability, T/C [7]: 96.8%
viability, T/C [8]: 99.8%
viability, T/C [9]: 87.5%
viability, T/C [10]: 66.5%
viability, T/C [11]: 54.8%
viability, T/C [12]: 39.7%
viability, T/C [13]: 89.5%
viability, T/C [14]: 96.8%
viability, T/C [15]: 88.9%
viability, T/C [16]: 69.2%
viability, T/C [17]: 50.2%
viability, T/C [18]: 35.1%
viability, T/C [19]: 83.8%
viability, T/C [20]: 90.5%
viability, T/C [21]: 85.4%
viability, T/C [22]: 69.9%
viability, T/C [23]: 51.1%
viability, T/C [24]: 33.9%
viability, T/C [25]: 71.3%
viability, T/C [26]: 68.3%
viability, T/C [27]: 63.2%
viability, T/C [28]: 56.8%
viability, T/C [29]: 44.7%
viability, T/C [30]: 29.7%
viability, T/C [31]: 70.3%
viability, T/C [32]: 69.3%
viability, T/C [33]: 70.6%
viability, T/C [34]: 51.3%
viability, T/C [35]: 42.3%
viability, T/C [36]: 31.6%
